Values joined by “and” are separate entries in the source; they are usually repeats but may differ in a detail not shown here. Identical values can stand only once.

By IC50 is commonly meant the concentration that gives 50% inhibition. Low values mean higher potency, high ones lower potency.

The target of this experiment is Replicase polyprotein 1ab (Severe acute respiratory syndrome coronavirus 2, UniProt P0DTD1). The experiment is described as follows: Functional biochemical assay to identify treatments for viral infectious disease that targets SARS-COV-2 nsp3 macrodomain, whereby the mechanism of action displaces an ADP-Ribose modified peptide from the binding site. Utilizing a time-resolved fluorescence method to measure binding by reading the emitted fluorescence intensity in two wavelengths.
On to `CC(C)[C@@H](Nc1ncnc2[nH]cc(C(=O)NC3CC3)c12)c1ccc2c(c1)S(=O)(=O)CCC2`, for which the IC50 was 260 nM and 145 nM and 150 nM.

`CC(C)[C@@H](Nc1ncnc2[nH]c(-c3cnn(CC(N)=O)c3)cc12)c1ccc2c(n1)OCCO2`: the IC50 is 242 nM and 68 nM and 134 nM. As for `Cc1nnc(CNC(=O)c2cc3c(N[C@@H](c4ccc5c(c4)OCCO5)C(C)C)ncnc3[nH]2)o1`, the figure is 1120 nM; as for `CC(C)[C@@H](Nc1ncnc2[nH]c(-c3cnn(C4(C(N)=O)CC4)c3)cc12)c1ccc2c(c1)OCCO2`, 1040 nM and 1380 nM and 1310 nM; as for `CC(C)[C@@H](Nc1ncnc2[nH]c([C@@H]3CCCNC3)cc12)c1ccc2c(c1)OCCO2`, 3490 nM and 5540 nM and 5190 nM. As to `Cc1cc(CNC(=O)c2cc3c(N[C@@H](c4ccc5c(c4)OCCO5)C(C)C)ncnc3[nH]2)[nH]n1`, the half-maximal inhibitory concentration (IC50) was found to be 1200 nM. That is a single-digit micromolar value. As for `COC(=O)c1coc(-c2cc3c(N[C@@H](c4ccc5c(c4)OCCO5)C(C)C)ncnc3[nH]2)c1`, the figure is 9280 nM and 10700 nM and 10100 nM; as for `CC(C)[C@@H](Nc1ncnc2[nH]c(C(=O)NCCn3cncn3)cc12)c1ccc2c(c1)OCCO2`, 1780 nM. In the case of `Cc1occc1-c1cc2c(N[C@@H](c3ccc4c(c3)OCCO4)C(C)C)ncnc2[nH]1`, the IC50 was 8540 nM and 8990 nM and 9510 nM. To `CNC(=O)c1c[nH]c2ncnc(N[C@@H](c3ccc4c(c3)NC(=O)CO4)C(C)C)c12` belongs 306 nM. On to `CCCn1nccc1-c1cc2c(N[C@@H](c3ccc4c(c3)OCCO4)C(C)C)ncnc2[nH]1`, for which the IC50 was 2190 nM and 2450 nM and 2620 nM. On to `CC(C)[C@@H](c1ccc2c(c1)OCCO2)N(C)c1ncnc2[nH]c(-c3cnn(CC(N)=O)c3)cc12`, for which the IC50 turned out to be 20100 nM.

On to `CC(C)[C@@H](Nc1ncnc2[nH]c(-c3cccc(CN4CCS(=O)(=O)CC4)c3)cc12)c1ccc2c(c1)OCCO2`, for which the IC50 was 3250 nM and 3450 nM and 3570 nM.

The compound `CNc1c[nH]c2ncnc(N[C@@H](c3ccc4c(c3)OCCO4)C(C)C)c12` displayed an IC50 of 28900 nM.

In the case of `CC(C)[C@@H](Nc1ncnc2[nH]c(-c3cnn([C@@H](C)C(N)=O)c3)cc12)c1ccc2c(c1)OCCO2`, the IC50 is 422 nM and 498 nM and 497 nM.

In turn, `COCCNC(=O)c1c[nH]c2ncnc(N[C@@H](c3ccc4c(c3)S(=O)(=O)CCC4)C(C)C)c12` came in with an IC50 of 326 nM.

`Cc1n[nH]c(C)c1-c1cc2c(N[C@@H](c3ccc4c(c3)OCCO4)C(C)C)ncnc2[nH]1`: the IC50 was found to be 31700 nM. Compound `CC(C)[C@@H](Nc1cc(C(N)=O)ccn1)c1ccc2c(c1)S(=O)(=O)CCC2` came in with an IC50 greater than 99500 nM. As for `CC(C)[C@@H](Nc1ncnc2[nH]ccc12)c1ccc2nn[nH]c2c1`, the figure is 3500 nM and 4100 nM and 4030 nM; as for `Cc1ncc(-c2cc3c(N[C@@H](c4ccc5c(c4)OCCO5)C(C)C)ncnc3[nH]2)o1`, 1160 nM and 1350 nM and 1400 nM; as for `Cc1ccc(-c2cc3c(N[C@@H](c4ccc5c(c4)OCCO5)C(C)C)ncnc3[nH]2)o1`, 40600 nM and 37600 nM. As for `CC(C)[C@@H](Nc1ncnc2[nH]c(C3=CCCN(C(=O)OCc4ccccc4)C3)cc12)c1ccc2c(c1)OCCO2`, the figure is greater than 99500 nM; as for `CNc1cc(N[C@@H](c2ccc3c(c2)S(=O)(=O)CCC3)C(C)C)ncn1`, 6080 nM. To `CNC(=O)c1cccc(-c2cc3c(N[C@@H](c4ccc5c(c4)OCCO5)C(C)C)ncnc3[nH]2)c1` belongs 416 nM and 475 nM and 383 nM. `CC(C)[C@@H](Nc1ncnc2[nH]c(-c3ccc(CC#N)cc3)cc12)c1ccc2c(c1)OCCO2`: the IC50 was 26400 nM and 28900 nM. Turning to `Cc1cc(-c2cc3c(N[C@@H](c4ccc5c(c4)OCCO5)C(C)C)ncnc3[nH]2)co1`, the IC50 is 8700 nM and 13600 nM and 17000 nM.

As for `CC(C)[C@@H](Nc1ncnc2[nH]c(-c3cnn(CC(N)=O)c3)cc12)c1ccc2c(n1)NC(=O)CO2`, the IC50 is 250 nM and 302 nM and 355 nM. To `CC(C)[C@@H](c1ccc2c(c1)OCCO2)N(C)c1ncnc2[nH]c(Br)cc12` belongs greater than 99500 nM; to `CC(C)[C@@H](Nc1ncnc2[nH]c(C(=O)NCCC3CN(C)C3)cc12)c1ccc2c(c1)OCCO2`, 894 nM; to `CC(C)[C@@H](Nc1ncnc2[nH]c(C(=O)NC3COC3)cc12)c1ccc2c(c1)OCCO2`, 743 nM and 1540 nM. In the case of `CC(C)[C@@H](Nc1ncnc2[nH]c(C(=O)Nc3cn[nH]c3)cc12)c1ccc2c(c1)OCCO2`, the IC50 was 2570 nM.

(Values after ChEMBL document CHEMBL5441456, “ASAP - SARS-CoV-2 nsp3 macrodomain dose response” (2024).)
